# Data as given in US9974305B2, “Fungicidal or bactericidal composition, and method for controlling diseases” (NISSAN CHEMICAL INDUSTRIES, LTD., priority 2014, dated 2018).
# Like-named read-outs stand apart in the source and are kept apart here.
# Experiments:
# [1] = test system: cucumber gray mold fungus (Botrytis cinerea); assay: Preventive test against gray mold on cucumber cotyledon leaves, spray treatment, preventive value and Colby expected value (Test Examples 1-4); type: in vivo; conditions: single compound; for pest or weed control at 100 ppm / pest or weed control at 3 ppm / pest or weed control at 10 ppm / pest or weed control at 50 ppm / pest or weed control at 5 ppm / pest or weed control at 35 ppm / pest or weed control at 8 ppm / pest or weed control at 25 ppm: Botrytis cinerea, 72 h; for pest or weed control at 3 ppm: 3 ppm spray; for pest or weed control at 35 ppm: 35 ppm spray; for pest or weed control at 8 ppm: 8 ppm spray; for pest or weed control at 25 ppm: 25 ppm spray
# Procedure: Using the following compound listed in Table 2 (the active ingredient A) and the compound listed in Table 5 through Table 15 (active ingredient B), an agent was prepared in accordance with the above Formulation Example. This agent was diluted with water to a predetermined concentration to obtain a test solution. Then, cucumber (variety: Sagami-hanjiro) was planted in a plastic pot of 90 cm^3, and in the cotyledon stage, 5 ml of the obtained test solution, was sprayed by a spray gun and air-dried. Thereafter, the treated leaf was cut off and placed in a plastic container which filled approximately 0.5 cm in depth water. A suspension of conidia of cucumber gray mold fungus (Botrytis cinerea) and a dissolved PDA culture medium were mixed at a ratio of 1:1 (mass ratio), and the mixture was dropped to inoculate the treated leaf with 30 μl. After the inoculation, the plastic container was sealed and left at 20° C. for 3 days, the ratio of the formed lesion occupying the inoculated leaf was measured, and the preventive value was calculated in accordance with the following calculation formula. Preventive value=[1−(treated plot lesion area ratio/untreated plot lesion area ratio)]×100
# Further, from the preventive value at each agent concentration, synergy was calculated by using the Colby method (Colby S. R. 1976, Weeds 15, 20-22). The calculation method is as follows. E=X+Y−XY/100
# X: preventive value of A agent at x concentration
# Y: preventive value of B agent at y concentration
# E: theoretical value expected by treatment of the mixture of A agent and B agent.
# The obtained result is analyzed to be synergy if the observed value is larger than the expected value, to be antagonism if the expected value is larger than the observed value, and to be an additive effect if the observed value and the expected value are the same.
# Using the following compound listed in Table 2 (active ingredient A) and the following compound listed in Table 5 through Table 15 (active ingredient B) as active ingredients, a preventive test against gray mold was conducted in accordance with the method described in Test Example 1.
# Using the following compound listed in Table 2 (active ingredient A) and the following compound listed in Table 5 or Table 6 (active ingredient B) as active ingredients, a preventive test against gray mold was conducted in accordance with the method described in Test Example 1.
# Using the following compound listed in Table 2 (active ingredient A) and the following compound listed in Table 6 through Table 16 (active ingredient B) as active ingredients, a preventive test against gray mold was conducted in accordance with the method described in Test Example 1.
# [2] = test system: wheat glume blotch (Leptosphaeria nodorum); assay: Efficacy test on wheat glume blotch, spray treatment and prevention test (Test Example 8); type: in vivo; conditions: spray, lesion area ratio
# Procedure: An agent comprising the following compound listed in Table 2 (active ingredient A) and the following compound listed in Table 6, Table 11 or Table 15 (active ingredient B) as active ingredients, was prepared in accordance with the above Formulation Example. This agent was diluted with water to a predetermined concentration to obtain a test solution. Then, to seedlings of wheat (variety: Haruyutaka) at the 1-leaf stage, seeded in a pot with a diameter of 7 cm, with 5 seeds per pot, and grown for 7 days, the test solution was applied by a spray gun in an amount of 5 ml per pot, for treatment. One day after the treatment, a spore suspension (1×100,000 cfu/ml) of wheat glume blotch (Leptosphaeria nodorum) was spray-inoculated, and the pot was placed in a moist chamber set in temperature of 20° C. and humidity more than 95% RH for 48 hours. After placing the pot in a glass greenhouse for 7 days, the ratio of the formed lesion area occupying the inoculated leaves was measured, and the preventive value was calculated in accordance with the following formula. Preventive value=[1−(treated plot lesion area ratio/untreated plot lesion area ratio)]×100
# Further, from the preventive value for each agent concentration, synergy was calculated by using the Colby method (Colby S. R. 1976, Weeds 15, 20-22).
# [3] = Test Example 4, 100 ppm spray, read-out: Preventive value
# [4] = Test Example 1, read-out: Preventive value
# [5] = Test Example 2, read-out: Preventive value
# [6] = Test Example 4, 10 ppm spray, read-out: Preventive value
# [7] = Test Example 4, 50 ppm spray, read-out: Preventive value
compound,measurement,setting,value
"Cn1cc(C(=O)Nc2cccc3c2[C@@H]2CC[C@H]3C2=C(Cl)Cl)c(C(F)F)n1 (racemic) [C01, benzovindiflupyr]",Preventive value,"[1]; Test Example 3, 5 ppm spray",60
"C[C@@]1(c2ccc(Oc3ccccc3)cc2)OC(=O)N(Nc2ccccc2)C1=O (racemic) [C23, famoxadone]",pest or weed control at 100 ppm,[1]; [3],35%
"Fc1ccc([C@]2(Cn3cncn3)O[C@H]2c2ccccc2Cl)cc1 (racemic) [Compound No. H10, epoxiconazole]",Preventive value,[2]; single compound 1 ppm,50
same,Preventive value,"[1]; Test Example 1, 10 ppm spray",60
same,Preventive value,"[1]; Test Example 2, 10 ppm spray",50
"CCCCNC(=O)n1c(NC(=O)OC)nc2ccccc21 [B01, benomyl]",pest or weed control at 3 ppm,[1]; [4],50%
same,pest or weed control at 3 ppm,[1]; [5],45%
"COC(=O)NC(=S)Nc1ccccc1NC(=S)NC(=O)OC [B05, thiophanate-methyl]",pest or weed control at 10 ppm,"[1]; Test Example 3, 10 ppm spray, read-out: Preventive value",60%
"CCOc1ccc(NC(=O)OC(C)C)cc1OCC [B06, diethofencarb]",pest or weed control at 50 ppm,"[1]; read-out: Preventive value, Test Example 3, 50 ppm spray",45%
"Cn1cc(C(=O)Nc2ccc(F)cc2-c2ccc(Cl)c(Cl)c2)c(C(F)F)n1 [C02, bixafen]",Preventive value,"[1]; Test Example 3, 50 ppm spray",70
"O=C(Nc1ccccc1-c1ccc(Cl)cc1)c1cccnc1Cl [C03, boscalid]",pest or weed control at 3 ppm,[1]; [4],60%
same,pest or weed control at 3 ppm,[1]; [5],58%
"O=C(NCCc1ncc(C(F)(F)F)cc1Cl)c1ccccc1C(F)(F)F [C06, fluopyram]",pest or weed control at 5 ppm,"[1]; Test Example 3, 5 ppm spray",63%
"CC(C)Oc1cccc(NC(=O)c2ccccc2C(F)(F)F)c1 [C07, flutolanil]",pest or weed control at 100 ppm,"[1]; Test Example 3, 100 ppm spray, read-out: Preventive value",50%
"Cn1cc(C(=O)Nc2ccccc2-c2cc(F)c(F)c(F)c2)c(C(F)F)n1 [C08, fluxapyroxad]",Preventive value,"[1]; Test Example 3, 1 ppm spray",65
"Cc1nn(C)c(Cl)c1C(=O)Nc1cccc2c1C(C)OC2(C)C (stereo not drawn) [C09, furametpyr]",Preventive value,"[1]; Test Example 3, 100 ppm spray",55
"Cc1cc(OC(C)C)ccc1C(=O)C(C)(C)NC(=O)c1sccc1C [C10, isofetamid]",Preventive value,"[1]; Test Example 3, 5 ppm spray",45
"Cc1ccccc1C(=O)Nc1cccc(OC(C)C)c1 [C12, mepronil]",pest or weed control at 10 ppm,"[1]; read-out: Preventive value, Test Example 3, 10 ppm spray",60%
"Cc1nn(C)c(F)c1C(=O)Nc1ccccc1C(C)CC(C)C (stereo not drawn) [C14, penflufen]",Preventive value,"[1]; Test Example 3, 100 ppm spray",65
"CC(C)CC(C)c1sccc1NC(=O)c1cn(C)nc1C(F)(F)F (stereo not drawn) [C15, penthiopyrad]",pest or weed control at 5 ppm,"[1]; Test Example 3, 5 ppm spray",60%
"Cn1cc(C(=O)Nc2ccccc2C2CC2C2CC2)c(C(F)F)n1 (stereo not drawn) [C16, sedaxane]",Preventive value,"[1]; Test Example 3, 10 ppm spray",50
"CO/N=C(/C(=O)OC)c1ccccc1COc1ccccc1C [C28, kresoxim-methyl]",pest or weed control at 5 ppm,"[2]; Parastagonospora nodorum, single compound 5 ppm, read-out: Preventive value",45%
same,pest or weed control at 10 ppm,"[1]; Test Example 1, 10 ppm spray, read-out: Preventive value",45%
same,pest or weed control at 10 ppm,"[1]; Test Example 2, 10 ppm spray, read-out: Preventive value",56%
"CNC(=O)C(OC)c1ccccc1COc1cc(C)ccc1C (stereo not drawn) [C29, mandestrobin, reference compound]",Preventive value,[2]; single compound 10 ppm,50
same,Preventive value,"[1]; Test Example 4, 10 ppm spray",45
"CNC(=O)/C(=N/OC)c1ccccc1CO/N=C(C)/C(=N/OC)C(/C)=N/OC [C31, orysastrobin]",Preventive value,"[1]; Test Example 4, 50 ppm spray",40
"CO/C=C(/C(=O)OC)c1ccccc1COc1cccc(C(F)(F)F)n1 [C32, picoxystrobin, reference compound]",Preventive value,[2]; single compound 1 ppm,50
same,Preventive value,"[1]; Test Example 4, 10 ppm spray",30
"COC(=O)N(OC)c1ccccc1COc1ccn(-c2ccc(Cl)cc2)n1 [C33, pyraclostrobin, reference compound]",pest or weed control at 1 ppm,"[2]; Parastagonospora nodorum, single compound 1 ppm, read-out: Preventive value",65%
same,pest or weed control at 10 ppm,[1]; [6],50%
"COC(=O)NCc1cc(/C(C)=N/OCc2cccc(C)n2)ccc1Cl [C36, pyribencarb-methyl, reference compound]",Preventive value,[2]; single compound 25 ppm,45
same,Preventive value,"[1]; Test Example 4, 10 ppm spray",60
"O=[N+]([O-])c1cc(C(F)(F)F)c(Cl)c([N+](=O)[O-])c1Nc1ncc(C(F)(F)F)cc1Cl [C43, fluazinam]",pest or weed control at 50 ppm,[1]; [7],45%
"N#Cc1c[nH]cc1-c1cccc2c1OC(F)(F)O2 [Compound No. E04, fludioxonil]",pest or weed control at 3 ppm,"[1]; read-out: Preventive value, Test Example 1",60%
same,pest or weed control at 3 ppm,"[1]; read-out: Preventive value, Test Example 2",58%
"CC(C)NC(=O)N1CC(=O)N(c2cc(Cl)cc(Cl)c2)C1=O [Compound No. F01, iprodione]",pest or weed control at 35 ppm,[1]; Test Example 1,50%
same,pest or weed control at 35 ppm,[1]; Test Example 2,48%
"Cc1cc(C2CC2)nc(Nc2ccccc2)n1 [D1, cyprodinil]",pest or weed control at 50 ppm,[1]; [7],50%
"CC#Cc1cc(C)nc(Nc2ccccc2)n1 [D2, mepanipyrim]",pest or weed control at 8 ppm,[1]; Test Example 1,55%
same,pest or weed control at 8 ppm,[1]; Test Example 2,56%
"Fc1ccc(Oc2ccnc3cc(Cl)cc(Cl)c23)cc1 [E02, quinoxyfen]",pest or weed control at 100 ppm,[1]; [3],5%
"CC12CC1(C)C(=O)N(c1cc(Cl)cc(Cl)c1)C2=O (stereo not drawn) [F02, procymidone]",pest or weed control at 10 ppm,[1]; [6],55%
"COc1cc(Cl)c(OC)cc1Cl [G06, chloroneb]",pest or weed control at 100 ppm,"[1]; read-out: Preventive value, Test Example 4, 100 ppm spray",35%
"CC(C1CC1)C(O)(Cn1cncn1)c1ccc(Cl)cc1 (stereo not drawn) [H05, cyproconazole]",pest or weed control at 10 ppm,[1]; [6],45%
"CC1COC(Cn2cncn2)(c2ccc(Oc3ccc(Cl)cc3)cc2Cl)O1 (stereo not drawn) [H07, difenoconazole]",pest or weed control at 10 ppm,[1]; [6],50%
"OC(c1ccc(Cl)cc1)(c1cncnc1)c1ccccc1Cl (stereo not drawn) [H12, fenarimol]",pest or weed control at 10 ppm,[1]; [6],55%
"O=c1c2cc(F)ccc2nc(-n2cncn2)n1-c1ccc(Cl)cc1Cl [H15, fluquinconazole]",pest or weed control at 10 ppm,[1]; [6],55%
"C[Si](Cn1cncn1)(c1ccc(F)cc1)c1ccc(F)cc1 [H16, flusilazole]",pest or weed control at 10 ppm,[1]; [6],50%
"OC(Cn1cncn1)(c1ccc(F)cc1)c1ccccc1F (stereo not drawn) [H17, flutriafol]",pest or weed control at 10 ppm,[1]; [6],45%
"CCCC(Cn1cncn1)c1ccc(Cl)cc1Cl (stereo not drawn) [H28, penconazole]",pest or weed control at 10 ppm,[1]; [6],45%
"FC(F)C(F)(F)OCC(Cn1cncn1)c1ccc(Cl)cc1Cl (stereo not drawn) [H36, tetraconazole]",pest or weed control at 10 ppm,[1]; [6],55%
"CC(Cc1ccc(C(C)(C)C)cc1)CN1CCCCC1 (stereo not drawn) [H44, fenpropidin]",pest or weed control at 100 ppm,[1]; [3],35%
"CC(Cc1ccc(C(C)(C)C)cc1)CN1C[C@@H](C)O[C@@H](C)C1 (stereo partly drawn) [H45, fenpropimorph]",pest or weed control at 100 ppm,[1]; [3],10%
"CC1(C(=O)Nc2ccc(O)c(Cl)c2Cl)CCCCC1 [H49, fenhexamid]",pest or weed control at 25 ppm,[1]; Test Example 1,30%
same,pest or weed control at 25 ppm,[1]; Test Example 2,25%
"O=C1c2ccccc2C(=O)N1SC(Cl)(Cl)Cl [L24, folpet]",pest or weed control at 100 ppm,[1]; [3],45%
"O=C(Cc1ccccc1)N/C(=N\OCC1CC1)c1c(C(F)(F)F)ccc(F)c1F [M01, cyflufenamid]",pest or weed control at 100 ppm,[1]; [3],15%
"COc1cc(C)c(C(=O)c2c(OC)ccc(Br)c2C)c(OC)c1OC [M09, metrafenone]",pest or weed control at 100 ppm,[1]; [3],5%
mancozeb [L16],Preventive value,"[1]; Test Example 4, 100 ppm spray",45
